Source: ChEMBL document CHEMBL1201862, “PubChem BioAssay data set” (2004)
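Briefly, cells in 96-well plates were exposed to five compound concentrations for 48 h, and endpoints were estimated by linear interpolation. GI50: concentration for 50% inhibition of growth.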 Active and inactive are the calls of the source. No stated cut-off is given here; in the data, active = GI50 up to about 1.1 µM and inactive = higher.

How the values were obtained:
Test in all cases: growth of human tumour cells (NCI), 48 h
786-0 = system: 786-0
A498 = system: A498
A549 = system: A549
ACHN = system: ACHN
CAKI-1 = system: CAKI-1
CCRF-CEM = system: CCRF-CEM
COLO 205 = system: COLO 205
DU-145 = system: DU-145
EKVX = system: EKVX
HCC 2998 = system: HCC 2998
HCT-116 = system: HCT-116
HCT-15 = system: HCT-15
HL-60 = system: HL-60
HOP-62 = system: HOP-62
HOP-92 = system: HOP-92
HT-29 = system: HT-29
Hs-578T = system: Hs-578T
IGROV-1 = system: IGROV-1
K562 = system: K562
KM12 = system: KM12
LOX IMVI = system: LOX IMVI
M14 = system: M14
MCF7 = system: MCF7
MDA-MB-231 = system: MDA-MB-231
MDA-MB-435 = system: MDA-MB-435
MDA-N = system: MDA-N
MOLT-4 = system: MOLT-4
Malme-3M = system: Malme-3M
NCI-H226 = system: NCI-H226
NCI-H23 = system: NCI-H23
NCI-H460 = system: NCI-H460
NCI-H522 = system: NCI-H522
NCI/ADR-RES = system: NCI/ADR-RES
OVCAR-3 = system: OVCAR-3
OVCAR-4 = system: OVCAR-4
OVCAR-5 = system: OVCAR-5
OVCAR-8 = system: OVCAR-8
PC-3 = system: PC-3
RPMI-8226 = system: RPMI-8226
RXF 393 = system: RXF 393
SF-268 = system: SF-268
SF-295 = system: SF-295
SF-539 = system: SF-539
SK-MEL-28 = system: SK-MEL-28
SK-MEL-2 = system: SK-MEL-2
SK-MEL-5 = system: SK-MEL-5
SK-OV-3 = system: SK-OV-3
SN12C = system: SN12C
SNB-19 = system: SNB-19
SNB-75 = system: SNB-75
SR = system: SR
SW-620 = system: SW-620
T47D = system: T47D
TK-10 = system: TK-10
U-251 = system: U-251
UACC-257 = system: UACC-257
UACC-62 = system: UACC-62
UO-31 = system: UO-31
BT-549 = system: BT-549

For `CC(CO)(CO)N1C(=O)C2C3C=CC(C3)C2C1=O` (stereo unspecified), the GI50 (786-0) was > 100 µM (inactive), the GI50 (A498) was > 100 µM (inactive) and the GI50 (A549) was > 100 µM (inactive). For the same compound, the GI50 (ACHN) was > 100 µM (inactive), the GI50 (CAKI-1) was > 100 µM (inactive) and the GI50 (CCRF-CEM) was > 100 µM (inactive). The GI50 (COLO 205) was > 100 µM (inactive), the GI50 (DU-145) was > 100 µM (inactive) and the GI50 (EKVX) was > 100 µM (inactive). For the same compound, the GI50 (HCC 2998) was > 100 µM (inactive), the GI50 (HCT-116) was > 100 µM (inactive) and the GI50 (HCT-15) was > 100 µM. For the same compound, the GI50 (HL-60) was > 100 µM (inactive), the GI50 (HOP-62) was > 100 µM (inactive) and the GI50 (HOP-92) was > 100 µM (inactive). For the same compound, the GI50 (HT-29) was > 100 µM (inactive), the GI50 (Hs-578T) was > 100 µM (inactive) and the GI50 (IGROV-1) was > 100 µM (inactive). For the same compound, the GI50 (K562) was > 100 µM (inactive), the GI50 (KM12) was > 100 µM (inactive) and the GI50 (LOX IMVI) was > 100 µM (inactive). For the same compound, the GI50 (M14) was > 100 µM (inactive), the GI50 (MCF7) was > 100 µM (inactive) and the GI50 (MDA-MB-231) was > 100 µM (inactive). The GI50 (MDA-MB-435) was > 100 µM (inactive), the GI50 (MDA-N) was > 100 µM (inactive) and the GI50 (MOLT-4) was > 100 µM (inactive). For the same compound, the GI50 (Malme-3M) was > 100 µM (inactive), the GI50 (NCI-H226) was > 100 µM (inactive) and the GI50 (NCI-H23) was > 100 µM (inactive). The GI50 (NCI-H460) was > 100 µM (inactive), the GI50 (NCI-H522) was > 100 µM (inactive) and the GI50 (NCI/ADR-RES) was > 100 µM (inactive). For the same compound, the GI50 (OVCAR-3) was > 100 µM (inactive), the GI50 (OVCAR-4) was > 100 µM (inactive) and the GI50 (OVCAR-5) was > 100 µM (inactive). For the same compound, the GI50 (OVCAR-8) was > 100 µM (inactive), the GI50 (PC-3) was > 100 µM (inactive) and the GI50 (RPMI-8226) was > 100 µM (inactive). For the same compound, the GI50 (RXF 393) was 52.1 µM (inactive), the GI50 (SF-268) was > 100 µM (inactive) and the GI50 (SF-295) was > 100 µM (inactive). For the same compound, the GI50 (SF-539) was > 100 µM (inactive), the GI50 (SK-MEL-28) was > 100 µM (inactive) and the GI50 (SK-MEL-2) was > 100 µM (inactive). For the same compound, the GI50 (SK-MEL-5) was > 100 µM (inactive), the GI50 (SK-OV-3) was > 100 µM (inactive) and the GI50 (SN12C) was > 100 µM (inactive). For the same compound, the GI50 (SNB-19) was > 100 µM (inactive), the GI50 (SNB-75) was > 100 µM (inactive) and the GI50 (SR) was > 100 µM (inactive). For the same compound, the GI50 (SW-620) was > 100 µM (inactive), the GI50 (T47D) was > 100 µM (inactive) and the GI50 (TK-10) was > 100 µM (inactive). The GI50 (U-251) was > 100 µM (inactive), the GI50 (UACC-257) was > 100 µM (inactive) and the GI50 (UACC-62) was > 100 µM (inactive). The GI50 (UO-31) was > 100 µM (inactive).
For `Cc1ccc(Cl)c2c(=O)c3ccc([N+](=O)[O-])cc3sc12`, the GI50 (786-0) was > 100 µM (inactive), the GI50 (A549) was > 100 µM (inactive) and the GI50 (ACHN) was > 100 µM (inactive). The GI50 (BT-549) was > 100 µM (inactive), the GI50 (CAKI-1) was > 100 µM (inactive) and the GI50 (COLO 205) was > 100 µM (inactive). For the same compound, the GI50 (DU-145) was > 100 µM (inactive), the GI50 (HCT-116) was > 100 µM (inactive) and the GI50 (HCT-15) was > 100 µM. The GI50 (HOP-62) was 79.8 µM (inactive), the GI50 (K562) was > 100 µM (inactive) and the GI50 (KM12) was > 100 µM (inactive). The GI50 (MCF7) was > 100 µM (inactive), the GI50 (MDA-N) was > 100 µM (inactive) and the GI50 (MOLT-4) was > 100 µM (inactive). The GI50 (NCI-H23) was > 100 µM (inactive), the GI50 (OVCAR-3) was > 100 µM (inactive) and the GI50 (OVCAR-5) was > 100 µM (inactive). For the same compound, the GI50 (OVCAR-8) was > 100 µM (inactive), the GI50 (PC-3) was > 100 µM (inactive) and the GI50 (RPMI-8226) was > 100 µM (inactive). The GI50 (SF-295) was 82.2 µM (inactive), the GI50 (SK-MEL-2) was > 100 µM (inactive) and the GI50 (SK-MEL-5) was > 100 µM (inactive). For the same compound, the GI50 (SNB-19) was > 100 µM (inactive), the GI50 (UACC-257) was > 100 µM (inactive) and the GI50 (UACC-62) was > 100 µM (inactive). For the same compound, the GI50 (UO-31) was > 100 µM (inactive).
